# From ChEMBL document CHEMBL5303765, “Data for DCP probe BAY-7081” (2023)
# The source made the active and inactive calls. The rule behind the calls is not given here.
# Assays:
# [1] = molecular target: 5-hydroxytryptamine receptor 7 (Homo sapiens) (UniProt P34969); conditions: Compound concentration 10.0 uM
# [2] = molecular target: T1, Dual specificity mitogen-activated protein kinase kinase 6 (Homo sapiens) (UniProt P52564); assay: MAP2K6 SGC Tm panel (DSF); conditions: for ΔTm: Compound concentration 10.0 uM
# T1 sequence (whole entry): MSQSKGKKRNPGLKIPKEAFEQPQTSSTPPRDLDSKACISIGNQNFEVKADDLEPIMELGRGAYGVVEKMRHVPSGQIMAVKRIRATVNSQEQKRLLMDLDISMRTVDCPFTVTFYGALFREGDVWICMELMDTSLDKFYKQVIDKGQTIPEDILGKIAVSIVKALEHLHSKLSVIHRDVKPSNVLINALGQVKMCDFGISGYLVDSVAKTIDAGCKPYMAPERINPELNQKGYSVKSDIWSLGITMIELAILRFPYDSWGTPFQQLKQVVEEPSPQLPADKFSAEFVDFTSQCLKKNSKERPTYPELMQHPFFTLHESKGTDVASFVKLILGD
# [3] = molecular target: D(2) dopamine receptor (Homo sapiens) (UniProt P14416); conditions: Compound concentration 10.0 uM
# [4] = molecular target: T2, Serine/threonine-protein kinase VRK1 (Homo sapiens) (UniProt Q99986); assay: VRK1 SGC Tm panel (DSF); conditions: for ΔTm: Compound concentration 10.0 uM
# T2 sequence (whole entry): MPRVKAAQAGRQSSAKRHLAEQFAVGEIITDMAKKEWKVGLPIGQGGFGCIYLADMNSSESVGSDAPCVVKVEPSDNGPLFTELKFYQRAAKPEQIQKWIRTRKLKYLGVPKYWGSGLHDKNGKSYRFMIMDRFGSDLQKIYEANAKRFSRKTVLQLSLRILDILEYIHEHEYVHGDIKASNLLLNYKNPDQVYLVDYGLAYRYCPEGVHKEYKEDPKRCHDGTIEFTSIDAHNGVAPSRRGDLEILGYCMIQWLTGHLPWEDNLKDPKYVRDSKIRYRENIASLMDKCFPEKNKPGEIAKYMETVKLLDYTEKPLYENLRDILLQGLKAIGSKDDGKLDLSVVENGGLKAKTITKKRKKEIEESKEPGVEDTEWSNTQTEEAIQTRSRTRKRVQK
# [5] = molecular target: Vascular endothelial growth factor receptor 1 (Homo sapiens) (UniProt P17948); assay: FLT1 SGC Tm panel (DSF); conditions: for ΔTm: Compound concentration 10.0 uM
# [6] = molecular target: T3, Ribosyldihydronicotinamide dehydrogenase [quinone] (Homo sapiens) (UniProt P16083); assay: NQO2 SGC Tm panel (DSF); conditions: for ΔTm: Compound concentration 10.0 uM
# T3 sequence (whole entry): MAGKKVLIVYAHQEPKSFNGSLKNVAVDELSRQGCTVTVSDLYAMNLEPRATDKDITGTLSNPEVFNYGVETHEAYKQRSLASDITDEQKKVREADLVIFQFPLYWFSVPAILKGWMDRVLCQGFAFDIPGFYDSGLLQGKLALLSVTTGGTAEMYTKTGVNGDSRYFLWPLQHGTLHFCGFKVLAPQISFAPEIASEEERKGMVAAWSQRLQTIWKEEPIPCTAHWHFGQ
# [7] = molecular target: High affinity cGMP-specific 3',5'-cyclic phosphodiesterase 9A (Mus musculus, UniProt O70628); assay: Cellular PDE9A assay; format: functional
# [8] = molecular target: Ribosomal protein S6 kinase alpha-5 (Homo sapiens) (UniProt O75582); assay: RPS6KA5 SGC Tm panel (DSF); conditions: for ΔTm: Compound concentration 10.0 uM
# [9] = molecular target: Serine/threonine-protein kinase B-raf (Homo sapiens) (UniProt P15056); assay: BRAF SGC Tm panel (DSF); conditions: for ΔTm: Compound concentration 10.0 uM
# [10] = molecular target: Maternal embryonic leucine zipper kinase (Homo sapiens) (UniProt Q14680); assay: MELK SGC Tm panel (DSF); conditions: for ΔTm: Compound concentration 10.0 uM
# [11] = molecular target: T4, Serine/threonine-protein kinase ULK1 (Homo sapiens) (UniProt O75385); assay: ULK1 SGC Tm panel (DSF); conditions: for ΔTm: Compound concentration 10.0 uM
# T4 sequence (whole entry): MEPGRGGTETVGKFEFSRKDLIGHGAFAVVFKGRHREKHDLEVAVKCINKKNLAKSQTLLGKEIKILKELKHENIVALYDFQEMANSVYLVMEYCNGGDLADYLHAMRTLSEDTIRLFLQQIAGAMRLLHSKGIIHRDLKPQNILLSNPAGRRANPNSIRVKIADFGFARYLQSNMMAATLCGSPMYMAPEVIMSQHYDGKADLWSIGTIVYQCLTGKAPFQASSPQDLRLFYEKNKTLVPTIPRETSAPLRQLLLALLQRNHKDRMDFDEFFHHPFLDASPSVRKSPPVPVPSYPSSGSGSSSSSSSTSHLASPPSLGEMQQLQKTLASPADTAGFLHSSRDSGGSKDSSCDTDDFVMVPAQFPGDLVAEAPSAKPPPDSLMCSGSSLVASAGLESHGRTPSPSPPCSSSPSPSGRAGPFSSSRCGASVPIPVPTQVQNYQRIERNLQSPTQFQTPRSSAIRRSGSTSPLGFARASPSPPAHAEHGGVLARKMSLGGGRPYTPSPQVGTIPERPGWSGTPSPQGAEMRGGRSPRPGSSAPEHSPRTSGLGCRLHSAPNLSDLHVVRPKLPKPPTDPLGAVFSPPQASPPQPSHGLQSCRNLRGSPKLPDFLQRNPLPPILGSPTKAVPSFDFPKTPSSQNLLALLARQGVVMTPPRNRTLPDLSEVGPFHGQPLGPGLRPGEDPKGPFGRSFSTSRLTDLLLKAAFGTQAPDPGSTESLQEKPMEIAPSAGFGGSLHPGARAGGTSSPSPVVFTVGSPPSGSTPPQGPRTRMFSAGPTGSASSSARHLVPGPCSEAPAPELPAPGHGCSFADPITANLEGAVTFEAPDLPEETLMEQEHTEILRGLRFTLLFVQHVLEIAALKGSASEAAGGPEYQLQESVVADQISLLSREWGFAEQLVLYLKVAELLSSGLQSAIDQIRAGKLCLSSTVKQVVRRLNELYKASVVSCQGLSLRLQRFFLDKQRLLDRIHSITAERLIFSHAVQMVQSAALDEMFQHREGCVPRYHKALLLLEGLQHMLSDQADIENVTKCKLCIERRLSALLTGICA
# [12] = molecular target: Alpha-1D adrenergic receptor (Homo sapiens) (UniProt P25100); conditions: Compound concentration 10.0 uM
# [13] = molecular target: Calcium/calmodulin-dependent protein kinase type II subunit beta (Homo sapiens) (UniProt Q13554); assay: CAMK2B SGC Tm panel (DSF); conditions: for ΔTm: Compound concentration 10.0 uM
# [14] = molecular target: D(1B) dopamine receptor (Homo sapiens) (UniProt P21918); conditions: Compound concentration 10.0 uM
# [15] = molecular target: Beta-2 adrenergic receptor (Homo sapiens) (UniProt P07550); conditions: Compound concentration 10.0 uM
# [16] = molecular target: Aurora kinase B (Homo sapiens) (UniProt Q96GD4); assay: AURKB SGC Tm panel (DSF); conditions: for ΔTm: Compound concentration 10.0 uM
# Sequence of Aurora kinase B (Homo sapiens) (Q96GD4 whole entry): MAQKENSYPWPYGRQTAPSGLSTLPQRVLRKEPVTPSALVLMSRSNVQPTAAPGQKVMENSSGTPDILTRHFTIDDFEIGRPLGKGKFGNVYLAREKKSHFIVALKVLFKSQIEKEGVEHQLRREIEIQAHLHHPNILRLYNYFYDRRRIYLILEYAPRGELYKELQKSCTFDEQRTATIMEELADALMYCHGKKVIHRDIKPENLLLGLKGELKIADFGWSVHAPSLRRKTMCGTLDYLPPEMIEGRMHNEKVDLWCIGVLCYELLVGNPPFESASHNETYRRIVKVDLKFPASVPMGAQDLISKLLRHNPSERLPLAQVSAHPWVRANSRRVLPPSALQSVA
# Sequence of D(1B) dopamine receptor (Homo sapiens) (P21918 whole entry): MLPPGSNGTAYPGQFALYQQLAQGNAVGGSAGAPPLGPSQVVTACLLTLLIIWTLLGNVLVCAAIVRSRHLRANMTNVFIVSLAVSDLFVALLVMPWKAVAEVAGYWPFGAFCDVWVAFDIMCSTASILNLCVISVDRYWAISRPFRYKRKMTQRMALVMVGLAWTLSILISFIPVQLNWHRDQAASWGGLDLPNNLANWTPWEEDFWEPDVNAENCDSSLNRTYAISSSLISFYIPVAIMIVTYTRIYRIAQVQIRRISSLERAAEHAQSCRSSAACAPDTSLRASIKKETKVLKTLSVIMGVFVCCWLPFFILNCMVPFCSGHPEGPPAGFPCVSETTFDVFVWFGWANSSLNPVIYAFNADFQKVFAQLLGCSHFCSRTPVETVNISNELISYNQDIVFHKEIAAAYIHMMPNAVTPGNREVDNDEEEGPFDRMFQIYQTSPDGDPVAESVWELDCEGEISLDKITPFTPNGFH
# Sequence of Maternal embryonic leucine zipper kinase (Homo sapiens) (Q14680 whole entry, looked up): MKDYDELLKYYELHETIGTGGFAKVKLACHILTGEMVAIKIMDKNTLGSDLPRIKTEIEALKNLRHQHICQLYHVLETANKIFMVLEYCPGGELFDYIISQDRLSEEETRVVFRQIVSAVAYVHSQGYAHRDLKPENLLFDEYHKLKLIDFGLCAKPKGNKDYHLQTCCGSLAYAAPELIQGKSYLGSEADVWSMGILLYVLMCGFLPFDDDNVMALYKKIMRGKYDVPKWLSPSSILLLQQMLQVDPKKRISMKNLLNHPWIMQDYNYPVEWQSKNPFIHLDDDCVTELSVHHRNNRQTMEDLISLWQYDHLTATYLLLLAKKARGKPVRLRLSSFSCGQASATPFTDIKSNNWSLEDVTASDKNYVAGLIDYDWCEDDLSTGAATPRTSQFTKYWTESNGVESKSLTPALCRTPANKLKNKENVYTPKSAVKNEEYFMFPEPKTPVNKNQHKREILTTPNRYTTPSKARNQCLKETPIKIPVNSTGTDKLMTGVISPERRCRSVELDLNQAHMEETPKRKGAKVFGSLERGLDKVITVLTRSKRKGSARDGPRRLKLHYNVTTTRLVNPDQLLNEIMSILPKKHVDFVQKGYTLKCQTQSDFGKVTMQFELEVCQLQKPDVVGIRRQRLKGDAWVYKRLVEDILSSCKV
# Sequence of Serine/threonine-protein kinase B-raf (Homo sapiens) (P15056 whole entry): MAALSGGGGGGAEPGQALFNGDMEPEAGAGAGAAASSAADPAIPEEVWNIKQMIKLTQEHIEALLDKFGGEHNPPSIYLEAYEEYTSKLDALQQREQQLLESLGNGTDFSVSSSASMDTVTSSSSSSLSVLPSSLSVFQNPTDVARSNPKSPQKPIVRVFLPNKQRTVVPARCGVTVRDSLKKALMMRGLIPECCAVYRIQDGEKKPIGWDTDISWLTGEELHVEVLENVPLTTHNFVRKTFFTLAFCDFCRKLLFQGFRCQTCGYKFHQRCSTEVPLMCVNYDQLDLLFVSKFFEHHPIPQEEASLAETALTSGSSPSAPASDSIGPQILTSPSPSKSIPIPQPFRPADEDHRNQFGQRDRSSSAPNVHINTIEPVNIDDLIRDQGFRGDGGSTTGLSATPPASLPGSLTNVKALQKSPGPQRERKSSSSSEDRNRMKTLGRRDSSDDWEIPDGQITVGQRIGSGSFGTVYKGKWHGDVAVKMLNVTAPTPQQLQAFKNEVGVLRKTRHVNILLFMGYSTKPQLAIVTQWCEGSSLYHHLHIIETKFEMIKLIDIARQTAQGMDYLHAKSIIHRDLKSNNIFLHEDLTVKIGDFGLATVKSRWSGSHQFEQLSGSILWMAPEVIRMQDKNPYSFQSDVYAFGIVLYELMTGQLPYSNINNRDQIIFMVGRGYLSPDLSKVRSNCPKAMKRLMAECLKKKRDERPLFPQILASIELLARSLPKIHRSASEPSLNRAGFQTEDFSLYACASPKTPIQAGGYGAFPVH
# Sequence of Calcium/calmodulin-dependent protein kinase type II subunit beta (Homo sapiens) (Q13554 whole entry): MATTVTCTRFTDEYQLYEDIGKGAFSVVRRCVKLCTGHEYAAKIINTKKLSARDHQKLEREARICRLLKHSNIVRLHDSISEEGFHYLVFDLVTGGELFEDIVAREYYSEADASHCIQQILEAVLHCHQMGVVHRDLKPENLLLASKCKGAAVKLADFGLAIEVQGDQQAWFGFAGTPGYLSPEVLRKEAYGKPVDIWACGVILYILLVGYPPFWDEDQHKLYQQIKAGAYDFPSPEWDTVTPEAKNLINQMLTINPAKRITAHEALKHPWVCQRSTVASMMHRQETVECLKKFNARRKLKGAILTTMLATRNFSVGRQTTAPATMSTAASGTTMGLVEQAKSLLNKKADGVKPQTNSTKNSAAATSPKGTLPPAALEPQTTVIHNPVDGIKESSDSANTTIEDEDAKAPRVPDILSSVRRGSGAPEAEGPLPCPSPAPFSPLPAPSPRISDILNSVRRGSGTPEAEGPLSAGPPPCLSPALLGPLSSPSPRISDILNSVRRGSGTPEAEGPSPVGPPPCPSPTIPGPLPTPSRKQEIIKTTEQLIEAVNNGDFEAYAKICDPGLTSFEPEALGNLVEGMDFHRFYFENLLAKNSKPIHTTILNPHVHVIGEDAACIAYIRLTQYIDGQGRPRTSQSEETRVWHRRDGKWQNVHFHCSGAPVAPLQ
# Sequence of Alpha-1D adrenergic receptor (Homo sapiens) (P25100 whole entry): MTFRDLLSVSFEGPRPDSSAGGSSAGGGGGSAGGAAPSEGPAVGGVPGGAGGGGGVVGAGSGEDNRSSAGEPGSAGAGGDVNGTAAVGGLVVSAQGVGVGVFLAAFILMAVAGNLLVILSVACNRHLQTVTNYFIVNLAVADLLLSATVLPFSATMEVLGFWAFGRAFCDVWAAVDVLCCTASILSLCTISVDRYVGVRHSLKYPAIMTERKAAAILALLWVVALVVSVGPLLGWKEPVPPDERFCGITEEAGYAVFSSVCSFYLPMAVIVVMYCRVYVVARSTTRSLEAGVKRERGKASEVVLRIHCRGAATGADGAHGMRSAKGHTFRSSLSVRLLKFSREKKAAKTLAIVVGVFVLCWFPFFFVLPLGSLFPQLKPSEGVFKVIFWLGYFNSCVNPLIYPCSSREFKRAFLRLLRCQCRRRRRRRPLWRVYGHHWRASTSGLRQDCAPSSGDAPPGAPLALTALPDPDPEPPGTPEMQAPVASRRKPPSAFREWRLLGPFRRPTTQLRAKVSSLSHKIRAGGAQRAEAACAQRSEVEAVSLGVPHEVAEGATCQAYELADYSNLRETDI
# Sequence of D(2) dopamine receptor (Homo sapiens) (P14416 whole entry): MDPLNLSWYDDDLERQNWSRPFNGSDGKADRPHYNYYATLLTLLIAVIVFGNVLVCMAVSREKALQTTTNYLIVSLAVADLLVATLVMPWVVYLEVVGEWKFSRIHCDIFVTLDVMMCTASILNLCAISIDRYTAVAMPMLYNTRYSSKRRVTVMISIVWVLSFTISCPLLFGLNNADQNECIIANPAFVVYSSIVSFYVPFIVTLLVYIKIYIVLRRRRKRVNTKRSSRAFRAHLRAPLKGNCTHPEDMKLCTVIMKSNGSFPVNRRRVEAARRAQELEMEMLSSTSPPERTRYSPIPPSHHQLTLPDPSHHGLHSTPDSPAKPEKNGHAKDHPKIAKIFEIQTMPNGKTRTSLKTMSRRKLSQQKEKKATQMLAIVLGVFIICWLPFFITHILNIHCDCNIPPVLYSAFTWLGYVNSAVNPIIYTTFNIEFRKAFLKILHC
# Sequence of Beta-2 adrenergic receptor (Homo sapiens) (P07550 whole entry, looked up): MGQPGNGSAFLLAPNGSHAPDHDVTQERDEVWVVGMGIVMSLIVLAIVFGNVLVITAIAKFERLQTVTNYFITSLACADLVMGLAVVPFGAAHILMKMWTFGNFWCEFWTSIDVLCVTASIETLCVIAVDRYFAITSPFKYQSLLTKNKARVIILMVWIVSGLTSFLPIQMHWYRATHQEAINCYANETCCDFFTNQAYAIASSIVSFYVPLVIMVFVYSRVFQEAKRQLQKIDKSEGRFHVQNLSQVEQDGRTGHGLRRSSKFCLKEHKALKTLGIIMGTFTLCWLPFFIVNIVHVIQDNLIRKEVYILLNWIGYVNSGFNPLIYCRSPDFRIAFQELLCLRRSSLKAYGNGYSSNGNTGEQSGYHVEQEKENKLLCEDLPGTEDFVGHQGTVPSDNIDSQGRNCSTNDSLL
# Sequence of 5-hydroxytryptamine receptor 7 (Homo sapiens) (P34969 whole entry): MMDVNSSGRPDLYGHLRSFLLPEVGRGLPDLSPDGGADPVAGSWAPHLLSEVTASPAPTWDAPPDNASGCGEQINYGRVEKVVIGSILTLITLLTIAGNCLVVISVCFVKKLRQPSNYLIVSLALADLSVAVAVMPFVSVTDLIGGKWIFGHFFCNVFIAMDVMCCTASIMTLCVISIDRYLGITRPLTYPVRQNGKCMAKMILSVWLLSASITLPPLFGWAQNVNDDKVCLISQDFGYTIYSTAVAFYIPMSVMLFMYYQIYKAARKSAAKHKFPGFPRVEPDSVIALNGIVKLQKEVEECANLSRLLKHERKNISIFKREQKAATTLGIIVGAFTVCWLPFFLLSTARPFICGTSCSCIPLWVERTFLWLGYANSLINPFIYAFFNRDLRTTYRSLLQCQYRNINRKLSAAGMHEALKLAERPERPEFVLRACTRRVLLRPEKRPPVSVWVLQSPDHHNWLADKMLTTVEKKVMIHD
SMILES,inhibition [1],delta Tm Staurosporine positive control [2],ΔTm [2],inhibition [3],delta Tm Staurosporine positive control [4],ΔTm [4],delta Tm Staurosporine positive control [5],ΔTm [5],delta Tm Staurosporine positive control [6],ΔTm [6],EC50 [7],delta Tm Staurosporine positive control [8],ΔTm [8],delta Tm Staurosporine positive control [9],ΔTm [9],delta Tm Staurosporine positive control [10],ΔTm [10],delta Tm Staurosporine positive control [11],ΔTm [11],inhibition [12],also measured
CCC[C@H]1CNCc2c1[nH]c(=O)c(C#N)c2N1CCC2(CC1)CC2,16.3%,12.8,-0.0944,3.01%,2.35,-0.355,13.1,-0.145,-1.11,-0.626,0.995 µM (active),13.8,-0.275,1.08,-0.134,14.2,-0.201,14,0.0473,0.14%,delta Tm Staurosporine positive control [13]: 13.7; ΔTm [13]: -0.51; inhibition [14]: 2.11%; inhibition [15]: -6.31%; delta Tm Staurosporine positive control [16]: 14.1; ΔTm [16]: -0.229
CCC[C@@H]1CNCc2c1[nH]c(=O)c(C#N)c2N1CCC2(CC1)CC2,-2.3%,12.8,-0.119,-4.21%,2.35,-0.315,13.1,-0.163,-1.11,-0.613,> 10 µM (not active),13.8,-0.505,1.08,-0.0823,14.2,0.193,14,0.234,-2.05%,delta Tm Staurosporine positive control [13]: 13.7; ΔTm [13]: -0.647; inhibition [14]: 4.19%; inhibition [15]: -6.78%; delta Tm Staurosporine positive control [16]: 14.1; ΔTm [16]: -0.199
